Where two headings read alike, the source gives them in different places. Numbered stars: 1 amine (or outer) side, 2 acyl side, 3 side chain; on linkers, the order of the positions; unused ones are H or OH. Side chains are listed from the residue outwards. Peptide text beside a SMILES is read from it. * marks the point of attachment. C18 diacid = O=C(O)CCCCCCCCCCCCCCCCC(=O)*; γGlu = O=C(O)[C@H](CCC(=O)[*:2])N[*:1]; AEEA = NCCOCCOCC(=O)O
Assay: Assay (II) PK i.v. minipig, in vivo half-life
Set-up: species or system Göttingen mini-pigs
Settings: male, Göttingen, iv
Procedure, shortened: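 Plasma levels after a single 6 nmol/kg intravenous dose in five male Göttingen mini-pigs were measured by TFC/LC/MS/MS against spiked-plasma calibration, sampling to 240 h. Vehicle: 50 mM K2HPO4, 0.05% tween 80, pH 8.0. Individual profiles analysed non-compartmentally for half-life.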

[1] = minipig, Half-life minipig, Assay (II)

Row | Structure (SMILES) | half-life [1] | half-life (Table 2, PP(2-36) based, crude sample, i.v. minipig, read-out: Half-life minipig, Assay (II) (converted))
1 | CC[C@H](C)[C@H](NC(=O)[C@H](Cc1ccc(O)cc1)NC(=O)[C@H](CCCNC(=N)N)NC(=O)[C@H](CCCNC(=N)N)NC(=O)[C@H](CC(C)C)NC(=O)[C@H](CC(=O)O)NC(=O)[C@H](C)NC(=O)[C@H](C)NC(=O)[C@H](Cc1ccc(O)cc1)NC(=O)[C@H](CCC(N)=O)NC(=O)[C@H](C)NC(=O)[C@H](CCSC)NC(=O)[C@H](CCC(N)=O)NC(=O)[C@H](CCC(=O)O)NC(=O)[C@@H]1CCCN1C(=O)[C@@H](NC(=O)[C@H](C)NC(=O)[C@H](CC(N)=O)NC(=O)[C@H](CC(=O)O)NC(=O)CNC(=O)[C@@H]1CCCN1C(=O)[C@H](CCCCNC(=O)COCCOCCNC(=O)COCCOCCNC(=O)CC[C@H](NC(=O)CCCCCCCCCCCCCCCCC(=O)O)C(=O)O)NC(=O)[C@@H](NC(=O)[C@@H]1CCCN1C(=O)[C@H](CCC(=O)O)NC(=O)[C@H](CC(C)C)NC(=O)[C@@H]1CCCN1)C(C)C)[C@@H](C)O)C(=O)N[C@@H](CC(N)=O)C(=O)N[C@@H](CCSC)C(=O)N[C@@H](CC(C)C)C(=O)N[C@H](C(=O)N[C@@H](CCCNC(=N)N)C(=O)N1CCC[C@H]1C(=O)N[C@@H](CCCNC(=N)N)C(=O)N[C@@H](Cc1ccc(O)cc1)C(N)=O)[C@@H](C)O [Compound AA] | 17 h | 
2 | CC[C@H](C)[C@H](NC(=O)[C@H](Cc1ccc(O)cc1)NC(=O)[C@H](CCCNC(=N)N)NC(=O)[C@H](CCCNC(=N)N)NC(=O)[C@H](CC(C)C)NC(=O)[C@H](CC(=O)O)NC(=O)[C@H](C)NC(=O)[C@H](C)NC(=O)[C@H](Cc1ccc(O)cc1)NC(=O)[C@H](CCC(N)=O)NC(=O)[C@H](C)NC(=O)[C@H](CCSC)NC(=O)[C@H](CCC(N)=O)NC(=O)[C@H](CCC(=O)O)NC(=O)[C@@H]1CCCN1C(=O)[C@@H](NC(=O)[C@H](C)NC(=O)[C@H](CC(N)=O)NC(=O)[C@H](CCCCNC(=O)COCCOCCNC(=O)COCCOCCNC(=O)CC[C@H](NC(=O)CCCCCCCCCCCCCCCCC(=O)O)C(=O)O)NC(=O)CNC(=O)[C@@H]1CCCN1C(=O)[C@H](Cc1ccc(O)cc1)NC(=O)[C@@H](NC(=O)[C@@H]1CCCN1C(=O)[C@H](CCC(=O)O)NC(=O)[C@H](CC(C)C)NC(=O)[C@@H]1CCCN1)C(C)C)[C@@H](C)O)C(=O)N[C@@H](CC(N)=O)C(=O)N[C@@H](CCSC)C(=O)N[C@@H](CC(C)C)C(=O)N[C@H](C(=O)N[C@@H](CCCNC(=N)N)C(=O)N1CCC[C@H]1C(=O)N[C@@H](CCCNC(=N)N)C(=O)N[C@@H](Cc1ccc(O)cc1)C(N)=O)[C@@H](C)O [Compound X] | 47 h | 
3 | CC[C@H](C)[C@H](NC(=O)[C@H](Cc1ccc(O)cc1)NC(=O)[C@H](CCCNC(=N)N)NC(=O)[C@H](CCCNC(=N)N)NC(=O)[C@H](CC(C)C)NC(=O)[C@H](CC(=O)O)NC(=O)[C@H](C)NC(=O)[C@H](C)NC(=O)[C@H](Cc1ccc(O)cc1)NC(=O)[C@H](CCC(N)=O)NC(=O)[C@H](C)NC(=O)[C@H](CCSC)NC(=O)[C@H](CCC(N)=O)NC(=O)[C@H](CCC(=O)O)NC(=O)[C@@H]1CCCN1C(=O)[C@@H](NC(=O)[C@H](C)NC(=O)[C@H](CC(N)=O)NC(=O)[C@H](CC(=O)O)NC(=O)CNC(=O)[C@@H]1CCCN1C(=O)[C@H](Cc1ccc(O)cc1)NC(=O)[C@@H](NC(=O)[C@@H]1CCCN1C(=O)[C@H](CCC(=O)O)NC(=O)[C@@H](N)CC(C)C)C(C)C)[C@@H](C)O)C(=O)N[C@@H](CC(N)=O)C(=O)N[C@@H](CCSC)C(=O)N[C@@H](CCCCNC(=O)COCCOCCNC(=O)COCCOCCNC(=O)CC[C@H](NC(=O)CCCCCCCCCCCCCCCCC(=O)O)C(=O)O)C(=O)N[C@H](C(=O)N[C@@H](CCCNC(=N)N)C(=O)N1CCC[C@H]1C(=O)N[C@@H](CCCNC(=N)N)C(=O)N[C@@H](Cc1ccc(O)cc1)C(N)=O)[C@@H](C)O [Compound AK] (H-LEPVYPGDNATPEQMAQYAADLRRYINMK([AEEA-AEEA-γGlu-C18 diacid])TRPRY-NH2; N-terminus and C-terminus assumed) | 80 h | 
4 | CC[C@H](C)[C@H](NC(=O)[C@H](CCCCNC(=O)COCCOCCNC(=O)COCCOCCNC(=O)CC[C@H](NC(=O)CCCCCCCCCCCCCCCCC(=O)O)C(=O)O)NC(=O)[C@H](CCCNC(=N)N)NC(=O)[C@H](CCCNC(=N)N)NC(=O)[C@H](CC(C)C)NC(=O)[C@H](CC(=O)O)NC(=O)[C@H](C)NC(=O)[C@H](C)NC(=O)[C@H](Cc1ccc(O)cc1)NC(=O)[C@H](CCC(N)=O)NC(=O)[C@H](C)NC(=O)[C@H](CCSC)NC(=O)[C@H](CCC(N)=O)NC(=O)[C@H](CCC(=O)O)NC(=O)[C@@H]1CCCN1C(=O)[C@@H](NC(=O)[C@H](C)NC(=O)[C@H](CC(N)=O)NC(=O)[C@H](CC(=O)O)NC(=O)CNC(=O)[C@@H]1CCCN1C(=O)[C@H](Cc1ccc(O)cc1)NC(=O)[C@@H](NC(=O)[C@@H]1CCCN1C(=O)[C@H](CCC(=O)O)NC(=O)[C@@H](N)CC(C)C)C(C)C)[C@@H](C)O)C(=O)N[C@@H](CC(N)=O)C(=O)N[C@@H](CCSC)C(=O)N[C@@H](CC(C)C)C(=O)N[C@H](C(=O)N[C@@H](CCCNC(=N)N)C(=O)N1CCC[C@H]1C(=O)N[C@@H](CCCNC(=N)N)C(=O)N[C@@H](Cc1ccc(O)cc1)C(N)=O)[C@@H](C)O [Compound AO] (H-LEPVYPGDNATPEQMAQYAADLRRK([AEEA-AEEA-γGlu-C18 diacid])INMLTRPRY-NH2; N-terminus and C-terminus assumed) | 44 h | 
5 | CC[C@H](C)[C@H](NC(=O)[C@H](Cc1ccc(O)cc1)NC(=O)[C@H](CCCNC(=N)N)NC(=O)[C@H](CCCNC(=N)N)NC(=O)[C@H](CC(C)C)NC(=O)[C@H](CC(=O)O)NC(=O)[C@H](C)NC(=O)[C@H](C)NC(=O)[C@H](Cc1ccc(O)cc1)NC(=O)[C@H](CCC(N)=O)NC(=O)[C@H](C)NC(=O)[C@H](CCSC)NC(=O)[C@H](CCC(N)=O)NC(=O)[C@H](CCC(=O)O)NC(=O)[C@@H]1CCCN1C(=O)[C@@H](NC(=O)[C@H](C)NC(=O)[C@H](CCCCNC(=O)COCCOCCNC(=O)COCCOCCNC(=O)CC[C@H](NC(=O)CCCCCCCCCCCCCCCCC(=O)O)C(=O)O)NC(=O)[C@H](CC(=O)O)NC(=O)CNC(=O)[C@@H]1CCCN1C(=O)[C@H](Cc1ccc(O)cc1)NC(=O)[C@@H](NC(=O)[C@@H]1CCCN1C(=O)[C@H](CCC(=O)O)NC(=O)[C@H](CC(C)C)NC(=O)[C@@H]1CCCN1)C(C)C)[C@@H](C)O)C(=O)N[C@@H](CC(N)=O)C(=O)N[C@@H](CCSC)C(=O)N[C@@H](CC(C)C)C(=O)N[C@H](C(=O)N[C@@H](CCCNC(=N)N)C(=O)N1CCC[C@H]1C(=O)N[C@@H](CCCNC(=N)N)C(=O)N[C@@H](Cc1ccc(O)cc1)C(N)=O)[C@@H](C)O [Compound W] |  | 29 h

From patent US20150141336A1, “Pancreatic Peptide Compounds and Use” (Novo Nordisk A/S, priority 2012, published 2015)
